In patent publication US10513538B2, “Dipeptidyl peptidase-IV (DPPIV), inhibitory peptide compound, composition containing the same, and production method for the same” (MARUHA NICHIRO CORPORATION, priority 2013, dated 2019):
Residues, ends and D or L forms follow the SMILES beside them.

Molecular target: T1, DPPIV (Human, recombinant) (Homo sapiens, UniProt P27487)
T1 construct: purchased Biomol (DPPIV Drug Discovery Assay Kit, Enzo Life Sciences, Inc.)
Test: DPPIV inhibitory activity measurement with partly modified DPPIV Drug Discovery Assay Kit (AMC substrate)
Assay type: biochemical
Conditions: for IC50: synthesized peptide, serially diluted; for Activity Contribution Ratio (%): contribution of the peptide to the DPPIV inhibitory activity of the salmon milt peptide composition, from content, peptide IC50 and composition IC50
Description: Each of the DPPIV inhibitory peptide compounds obtained in Example 1 was measured for the DPPIV inhibitory activity. The measurement was performed by using a partly modified DPPIV Drug Discovery Assay Kit (manufactured by Enzo Life Sciences, Inc.). As a substrate of a DPPIV enzyme, an AMC substrate (H-Gly-Pro-amino-4-methylcoumarin, BML-P189-9090; manufactured by Biomol) was used, as an enzyme, DPPIV (Human, recombinant; manufactured by Biomol) was used, and as a control inhibitor, Diprotin A (manufactured by Peptide Institute Inc.) was used. […] To the resultant solution, 50 μL of an AMC substrate solution (0.01 mM) pre-incubated at 37° C. was added, and a fluorescence intensity was measured at an excitation wavelength of 340 nm and a measurement wavelength of 460 nm every 5 minutes for 30 minutes by using a microplate reader (GENio Pro, manufactured by TECAN). The activity in the case without sample was set as 100%, and the relative activity of each sample was calculated. The measurement was repeatedly performed three times for each sample to obtain an average.
Each of the peptide compositions thus obtained was dissolved in distilled water in a concentration of 3 mg/mL, the resultant was subjected to a 0.45 μm membrane filter treatment, and the DPPIV inhibitory activity test was performed in the same manner as in Example 2.
Each peptide identified by the LC-MS analysis of Example 6 was synthesized and dissolved in distilled water to find the DPPIV inhibitory activity in the same manner as in Example 2.

T1 sequence (P27487 whole entry): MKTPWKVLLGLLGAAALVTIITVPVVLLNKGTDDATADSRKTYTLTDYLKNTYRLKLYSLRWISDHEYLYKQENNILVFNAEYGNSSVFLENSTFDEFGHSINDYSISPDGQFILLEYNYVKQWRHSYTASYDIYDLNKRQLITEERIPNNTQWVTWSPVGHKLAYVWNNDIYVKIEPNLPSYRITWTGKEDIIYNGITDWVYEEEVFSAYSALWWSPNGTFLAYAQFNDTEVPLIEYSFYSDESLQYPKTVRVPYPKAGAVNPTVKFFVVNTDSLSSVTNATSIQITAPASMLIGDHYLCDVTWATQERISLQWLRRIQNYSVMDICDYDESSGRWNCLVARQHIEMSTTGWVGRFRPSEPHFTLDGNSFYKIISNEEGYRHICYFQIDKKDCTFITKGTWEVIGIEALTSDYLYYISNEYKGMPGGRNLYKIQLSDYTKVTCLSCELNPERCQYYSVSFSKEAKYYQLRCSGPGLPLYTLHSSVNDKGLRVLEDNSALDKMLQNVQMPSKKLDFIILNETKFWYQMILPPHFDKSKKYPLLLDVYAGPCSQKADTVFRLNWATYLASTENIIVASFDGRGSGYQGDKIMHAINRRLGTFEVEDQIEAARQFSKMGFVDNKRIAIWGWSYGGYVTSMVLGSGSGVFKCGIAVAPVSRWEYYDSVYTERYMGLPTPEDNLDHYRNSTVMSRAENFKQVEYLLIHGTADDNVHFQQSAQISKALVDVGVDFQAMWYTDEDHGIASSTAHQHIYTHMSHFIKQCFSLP

Row | SMILES | IC50 | Activity Contribution Ratio (%)
1 | N[C@@H](Cc1ccccc1)C(=O)N1CCC[C@H]1C(=O)O [FP, Phe-Pro] (H-Phe-Pro-OH) | > 100 µM | 
2 | CC[C@H](C)[C@H](N)C(=O)N1CCC[C@H]1C(=O)O [IP, Ile-Pro] (H-Ile-Pro-OH; N-terminus and C-terminus assumed) | 66 µM | 6.6%
3 | CC(C)C[C@H](N)C(=O)N1CCC[C@H]1C(=O)O [LP, Leu -Pro] (H-Leu-Pro-OH) | > 100 µM | 

Second part, the compound after the results:

Row | IC50 | Activity Contribution Ratio (%) | SMILES
4 | 40 µM | 0.4% | CC(C)[C@H](NC(=O)[C@@H]1CCCN1C(=O)[C@@H](N)Cc1ccccc1)C(=O)NCC(=O)O [FPVG, Phe-Pro-Val-Gly] (H-FPVG-OH; N-terminus and C-terminus assumed)
5 | 46 µM | 0.2% | CC(C)C[C@H](NC(=O)[C@@H](NC(=O)[C@@H]1CCCN1C(=O)[C@@H](N)CC(C)C)C(C)C)C(=O)O [LPVL, Leu-Pro-Val-Leu] (H-LPVL-OH; N-terminus and C-terminus assumed)
